Source: US9512087B2, “Hybrid molecules containing pharmacophores of fluconazole as antifungal agents and their preparation” (Council for Scientific & Industrial Research, priority 2011, dated 2016)
≈ marks a conversion by molar mass, not a printed value.

Columns and labels:
Assay in all cases: Antifungal MIC, broth dilution
C. tropicalis ATCC 750 = type: cell-based; conditions: Candida tropicalis, ATCC750, RPMI 1640 with MOPS, end point 48 hours, read-out: Ct01 MIC50
A. fumigatus ATCC 46645 = type: cell-based; conditions: Aspergillus fumigatus, ATCC46645, RPMI 1640 with MOPS, end point 48 hours, read-out: Afm01 MIC50
C. albicans ATCC 24433 = type: cell-based, Candida albicans; conditions: Candida albicans, ATCC24433, RPMI 1640 with MOPS, end point 48 hours; for MIC80: read-out: Ca01 A: MIC80; for MIC50: read-out: Ca01 B: MIC50
Protocol: (§1) The compounds of Formula 1 were tested for antifungal activity against Candida albicans, Aspergillus niger and Fusarium proliferatum. In vitro evaluation of antifungal activity was performed by determining the minimum inhibitory concentration (MIC) following standard methods (CLSI: Reference method for broth dilution antifungal susceptibility testing of yeasts; Approved standard, second edition M27-A2, 2002; CLSI: Reference method for broth dilution antifungal susceptibility testing of filamentous fungi; Approved standard M38-A, 2002). Anti-fungal susceptibility testing of these anti-fungal compounds was done by broth dilution method using RPMI 1640 medium with MOPS buffer. Known anti-fungal agents like fluconazole and amphotericin-B were used as positive control. End points were determined after 48 hours visually and by using spectrophotometer wherever necessary. Different dilutions were tried and various sets of experiments performed. The activity parameters are enumerated in Table 5.

C. neoformans ATCC 34664 = type: cell-based; conditions: Cryptococcus neoformans, ATCC34664, RPMI 1640 with MOPS, end point 48 hours, read-out: Cn01 MIC50
C. glabrata ATCC 90030 = type: cell-based; conditions: Nakaseomyces glabratus, ATCC90030, RPMI 1640 with MOPS, end point 48 hours, read-out: Cg01 MIC50
[1] = test system: F. proliferatum ATCC 10052; type: cell-based, Fusarium proliferatum; conditions: Fusarium proliferatum, ATCC10052, RPMI 1640 with MOPS, end point 48 hours, read-out: Fp01 MIC50
Protocol: as §1

C. krusei ATCC 6258 = type: cell-based; conditions: Pichia kudriavzevii, ATCC6258, RPMI 1640 with MOPS, end point 48 hours, read-out: Ck01 MIC50
A. niger ATCC 16404 = type: cell-based, Aspergillus niger; conditions: Aspergillus niger, ATCC16404, RPMI 1640 with MOPS, end point 48 hours, read-out: An01 MIC50
Protocol: as §1

SMILES | MIC50 (C. tropicalis ATCC 750) | MIC50 (A. fumigatus ATCC 46645) | MIC80 (C. albicans ATCC 24433) | MIC50 (C. albicans ATCC 24433) | MIC50 (C. neoformans ATCC 34664) | MIC50 (C. glabrata ATCC 90030) | MIC50 [1] | MIC50 (C. krusei ATCC 6258) | MIC50 (A. niger ATCC 16404)
OC(COc1ccc(C2=NNC(c3ccc(Cl)cc3Cl)C2)cc1)(Cn1cncn1)c1ccc(F)cc1F (stereo not drawn) [Compound 1E-1, 1-(4-(5-(2,4-dichlorophenyl)-4,5-dihydro-1H-pyrazol-3-yl)phenoxy)-2-(2,4-difluorophenyl)-3-(1H-1,2,4-triazol-1-yl)propan-2-ol] | 1 µg/mL (≈ 1.84 µM) | > 8 µg/mL | 0.25 µg/mL (≈ 0.459 µM) | 0.25 µg/mL (≈ 0.459 µM) | 2 µg/mL (≈ 3.67 µM) | 2 µg/mL (≈ 3.67 µM) | > 8 µg/mL | > 8 µg/mL | > 8 µg/mL
O=C(c1ccc(OCC(O)(Cn2cncn2)c2ccc(F)cc2F)cc1)C1OC1c1ccc(Cl)cc1Cl (stereo not drawn) [Compound 1B-2, (3-(2,4-dichlorophenyl)oxiran-2-yl) (4-(2-(2,4-difluorophenyl)-2-hydroxy-3-(1H-1,2,4-triazol-1-yl)propoxy)phenyl)methanone] | 1 µg/mL (≈ 1.83 µM) | > 4 µg/mL | 0.5 µg/mL (≈ 0.915 µM) | 0.5 µg/mL (≈ 0.915 µM) | 1 µg/mL (≈ 1.83 µM) | 0.5 µg/mL (≈ 0.915 µM) | > 4 µg/mL | 4 µg/mL (≈ 7.32 µM) | > 4 µg/mL
COc1ccc(/C=C/C(=O)c2ccc(OCC(O)(Cn3cncn3)c3ccc(F)cc3F)cc2)cc1 (stereo not drawn) [Compound 1A-2] | 0.25 µg/mL (≈ 0.509 µM) | > 4 µg/mL | 0.12 µg/mL (≈ 0.244 µM) | 0.06 µg/mL (≈ 0.122 µM) | 1 µg/mL (≈ 2.03 µM) | 0.25 µg/mL (≈ 0.509 µM) | > 4 µg/mL | 4 µg/mL (≈ 8.14 µM) | 4 µg/mL (≈ 8.14 µM)
COc1ccc(/C=C/C(=O)c2ccc(OC[C@@](O)(Cn3cncn3)c3ccc(F)cc3F)cc2)cc1 [S-(+)-1A-2] | 2 µg/mL (≈ 4.07 µM) | > 4 µg/mL | 1 µg/mL (≈ 2.03 µM) | 0.5 µg/mL (≈ 1.02 µM) | 2 µg/mL (≈ 4.07 µM) | 1 µg/mL (≈ 2.03 µM) | > 4 µg/mL | > 4 µg/mL | > 4 µg/mL
O=C(/C=C/c1cccs1)c1ccc(OC[C@@](O)(Cn2cncn2)c2ccc(F)cc2F)cc1 [S-(+)-1A-13] | 2 µg/mL (≈ 4.28 µM) | > 4 µg/mL | 0.5 µg/mL (≈ 1.07 µM) | 0.25 µg/mL (≈ 0.535 µM) | 4 µg/mL (≈ 8.56 µM) | 0.25 µg/mL (≈ 0.535 µM) | > 4 µg/mL | > 4 µg/mL | > 4 µg/mL
COc1ccc(/C=C/C(=O)c2ccc(OCC(O)(Cn3cncn3)c3ccc(Br)cc3)cc2)cc1 (stereo not drawn) [Compound 1A-11] | > 4 µg/mL | > 4 µg/mL | 1 µg/mL (≈ 1.87 µM) | 0.5 µg/mL (≈ 0.936 µM) | 1 µg/mL (≈ 1.87 µM) | 1 µg/mL (≈ 1.87 µM) | > 4 µg/mL | > 4 µg/mL | > 4 µg/mL
COc1cc(/C=C/C=O)ccc1OCC(O)(Cn1cncn1)c1ccc(F)cc1F (stereo not drawn) [Compound 1A-29] | 8 µg/mL (≈ 19.3 µM) | > 64 µg/mL | 0.5 µg/mL (≈ 1.2 µM) | 0.25 µg/mL (≈ 0.602 µM) | 16 µg/mL (≈ 38.5 µM) | 1 µg/mL (≈ 2.41 µM) | > 64 µg/mL | 32 µg/mL (≈ 77 µM) | > 64 µg/mL
COc1cc(/C=C/C(=O)c2ccc(OCC(O)(Cn3cncn3)c3ccc(F)cc3F)cc2)cc(OC)c1OC (stereo not drawn) [Compound 1A-5] | 1 µg/mL (≈ 1.81 µM) | > 4 µg/mL | 1 µg/mL (≈ 1.81 µM) | 0.25 µg/mL (≈ 0.453 µM) | > 4 µg/mL | 1 µg/mL (≈ 1.81 µM) | > 4 µg/mL | > 4 µg/mL | > 4 µg/mL
OC(COc1ccc(-c2cc(-c3ccc(Cl)cc3Cl)[nH]n2)cc1)(Cn1cncn1)c1ccc(F)cc1F (stereo not drawn) [Compound 1D-1, 1-(4-(5-(2,4-dichlorophenyl)-1H-pyrazol-3-yl)phenoxy)-2-(2,4-difluorophenyl)-3-(1H-1,2,4-triazol-1-yl)propan-2-ol] | 0.5 µg/mL (≈ 0.922 µM) | > 4 µg/mL | 0.5 µg/mL (≈ 0.922 µM) | 0.5 µg/mL (≈ 0.922 µM) | 1 µg/mL (≈ 1.84 µM) | 1 µg/mL (≈ 1.84 µM) | > 4 µg/mL | 2 µg/mL (≈ 3.69 µM) | > 4 µg/mL
CC(=O)/C=C/c1ccc(OCC(O)(Cn2cncn2)c2ccc(F)cc2F)cc1 (stereo not drawn) [Compound 1A-25] | 2 µg/mL (≈ 5.01 µM) | 8 µg/mL (≈ 20 µM) | 0.25 µg/mL (≈ 0.626 µM) | 0.12 µg/mL (≈ 0.3 µM) | 4 µg/mL (≈ 10 µM) | 0.12 µg/mL (≈ 0.3 µM) | > 128 µg/mL | 8 µg/mL (≈ 20 µM) | 8 µg/mL (≈ 20 µM)
O=C(/C=C/c1ccc(Cl)cc1)c1ccc(OC[C@@](O)(Cn2cncn2)c2ccc(F)cc2F)cc1 [S-(+)-1A-6, S-(+)-(E)-3-(4-chlorophenyl)-1-(4-(2-(2,4-difluorophenyl)-2-hydroxy-3-(1H-1,2,4-triazol-1-yl)propoxy)phenyl)prop-2-en-1-one] | 2 µg/mL (≈ 4.03 µM) | > 4 µg/mL | 2 µg/mL (≈ 4.03 µM) | 1 µg/mL (≈ 2.02 µM) | 2 µg/mL (≈ 4.03 µM) | 0.5 µg/mL (≈ 1.01 µM) | > 4 µg/mL | 4 µg/mL (≈ 8.07 µM) | > 4 µg/mL
O=C(/C=C/c1ccccc1F)c1ccc(OCC(O)(Cn2cncn2)c2ccc(F)cc2F)cc1 (stereo not drawn) [Compound 1A-8] | 0.5 µg/mL (≈ 1.04 µM) | > 4 µg/mL | 0.12 µg/mL (≈ 0.25 µM) | 0.12 µg/mL (≈ 0.25 µM) | 2 µg/mL (≈ 4.17 µM) | 0.25 µg/mL (≈ 0.521 µM) | > 4 µg/mL | 4 µg/mL (≈ 8.34 µM) | > 4 µg/mL
COc1ccc(/C=C/C(=O)c2ccc(OCC(O)(Cn3cncn3)c3ccc(F)cc3)cc2)cc1 (stereo not drawn) [Compound 1A-10] | 4 µg/mL (≈ 8.45 µM) | > 4 µg/mL | 2 µg/mL (≈ 4.22 µM) | 0.25 µg/mL (≈ 0.528 µM) | 0.5 µg/mL (≈ 1.06 µM) | 0.5 µg/mL (≈ 1.06 µM) | > 4 µg/mL | 4 µg/mL (≈ 8.45 µM) | > 4 µg/mL
COc1ccc(C(=O)/C=C/c2ccc(OCC(O)(Cn3cncn3)c3ccc(F)cc3F)cc2)cc1 (stereo not drawn) [Compound 1A-20] | 1 µg/mL (≈ 2.03 µM) | 8 µg/mL (≈ 16.3 µM) | 0.25 µg/mL (≈ 0.509 µM) | 0.12 µg/mL (≈ 0.244 µM) | 1 µg/mL (≈ 2.03 µM) | 0.25 µg/mL (≈ 0.509 µM) | > 4 µg/mL | 4 µg/mL (≈ 8.14 µM) | > 4 µg/mL
O=C(/C=C/c1ccc(Cl)cc1)c1ccc(OCC(O)(Cn2cncn2)c2ccc(F)cc2F)cc1 (stereo not drawn) [Compound 1A-6] | 0.5 µg/mL (≈ 1.01 µM) | > 4 µg/mL | 0.25 µg/mL (≈ 0.504 µM) | 0.5 µg/mL (≈ 1.01 µM) | 0.5 µg/mL (≈ 1.01 µM) | 0.5 µg/mL (≈ 1.01 µM) | > 4 µg/mL | 2 µg/mL (≈ 4.03 µM) | > 4 µg/mL
O=C(/C=C/c1cccs1)c1ccc(OCC(O)(Cn2cncn2)c2ccc(F)cc2)cc1 (stereo not drawn) [Compound 1A-17] | 2 µg/mL (≈ 4.45 µM) | > 8 µg/mL | 0.5 µg/mL (≈ 1.11 µM) | 0.25 µg/mL (≈ 0.556 µM) | 1 µg/mL (≈ 2.22 µM) | 0.25 µg/mL (≈ 0.556 µM) | > 8 µg/mL | 8 µg/mL (≈ 17.8 µM) | > 8 µg/mL
O=C(/C=C/c1ccc(Cl)cc1)c1ccc(OCC(O)(Cn2cncn2)c2ccc(F)cc2)cc1 (stereo not drawn) [Compound 1A-12] | 4 µg/mL (≈ 8.37 µM) | > 4 µg/mL | 2 µg/mL (≈ 4.18 µM) | 0.5 µg/mL (≈ 1.05 µM) | 0.5 µg/mL (≈ 1.05 µM) | 0.5 µg/mL (≈ 1.05 µM) | > 4 µg/mL | 4 µg/mL (≈ 8.37 µM) | > 4 µg/mL
O=C(/C=C/c1ccccc1)c1ccc(OCC(O)(Cn2cncn2)c2ccc(F)cc2F)cc1 (stereo not drawn) [Compound 1A-1] | 0.5 µg/mL (≈ 1.08 µM) | > 2 µg/mL | 0.12 µg/mL (≈ 0.26 µM) | 0.06 µg/mL (≈ 0.13 µM) | 1 µg/mL (≈ 2.17 µM) | 0.25 µg/mL (≈ 0.542 µM) | > 2 µg/mL | > 2 µg/mL | > 2 µg/mL
O=C(/C=C/c1cccs1)c1ccc(OCC(O)(Cn2cncn2)c2ccc(F)cc2F)cc1 (stereo not drawn) [Compound 1A-13] | 0.5 µg/mL (≈ 1.07 µM) | > 8 µg/mL | 0.25 µg/mL (≈ 0.535 µM) | 0.12 µg/mL (≈ 0.257 µM) | 1 µg/mL (≈ 2.14 µM) | 0.25 µg/mL (≈ 0.535 µM) | > 8 µg/mL | 8 µg/mL (≈ 17.1 µM) | > 8 µg/mL
